Data as given in patent US9150788B2, “Non-amphiphile-based water-in-water emulsion and uses thereof” (Syracuse University, priority 2007, dated 2015).

Experiments:
AI-2 synthesis [1] = settings: 100 μg/mL; cited from earlier work
E. coli = E. coli cell growth (toxicity); type: cell-based; settings: 60 μg/mL
AI-2 synthesis [2] = assay: AI-2 synthesis in E. coli, bioluminescence assay with reporter strain Vibrio harveyi BB 170; type: cell-based; settings: 60 μg/mL
Experimental: Biofilm formation relies on bacteria's secretion and sensing (quorum sensing) of signal molecules (called auto-inducer). […] Furanone #8 and 9 (60 μg/mL) inhibited AI-2 synthesis in E. coli 12.5- and 3.5-fold. […] 96: p. 1639-1644).

E. coli biofilm = E. coli biofilm formation on stainless steel surface; type: cell-based; settings: 60 μg/mL, non-toxic concentration

Structure (SMILES)	inhibition of AI-2 synthesis (AI-2 synthesis [1])	E. coli cell growth (E. coli)	inhibition of AI-2 synthesis in E. coli (AI-2 synthesis [2])	repression of E. coli biofilm formation, % of the surface coverage (E. coli biofilm)
CCCCC1=C(Br)/C(=C\Br)OC1=O [furanone #1]	2 fold	–	–	–
CC1=CC(=C(Br)Br)OC1=O [furanone #9]	–	cell growth not affected	3.5 fold	86%
O=C1O/C(=C/Br)C(Br)=C1CBr [furanone #10]	–	cell growth not affected	–	91%
